Data: patent US20250195491A1 (AEVIS BIO, INC., priority 2022, published 2025)

Experiments:
iNOS and COX-2 [1] = assay: iNOS and COX-2 immunoblotting in LPS-stimulated RAW264.7 cells; format: cell-based, mouse; conditions: RAW264.7, 3.33, 10, or 30 μM, LPS 60 ng/ml 24 hours, FIG. 6A
Procedure: To confirm an oxidative stress suppression effect, the expression levels of iNOS and COX-2 were confirmed.
To this end, the RAW264.7 cell line, which is a mouse macrophage cell line, was purchased from the Korea Cell Line Bank (KCLB, Korea) and used, and cultured in a DMEM medium (Corning, MD, USA) supplemented with 10% fetal bovine serum (Corning, MD, USA), 100 U/mL of penicillin (Corning, MD, USA), and 100 100 μg/mL of streptomycin (Corning, MD, USA) at 37° C. in a 5% CO2 incubator.
After 1 hour, the cells were stimulated by treatment with 60 ng/ml of LPS, and further cultured for 24 hours. The cells were disrupted by adding a RIPA buffer containing a protease inhibitor cocktail (Thermo Fisher Scientific) and centrifuged at 14,000 rpm for 15 minutes at 4° C. to obtain a cell extract. Equal amounts of the cell extract were loaded, and proteins were separated through SDS-PAGE and then transferred to a PVDF film. The protein-transferred membrane was blocked using skim milk, incubated with a primary antibody for 3 hours at room temperature, and then incubated with an HRP-conjugated secondary antibody for 1 hour at room temperature.
The resulting product was washed with TBS-T three times between steps. […]

BV-2 cells = assay: Nitrite content in culture medium of LPS-stimulated BV-2 cells (Griess); format: cell-based, mouse; conditions: BV-2, 30, 10, or 3.33 μM, LPS 1 μg/mL 24 hours, FIG. 6B
Procedure: (§1) To further confirm the oxidative stress suppression effect, the content of nitrite released due to an inflammatory response and the expression levels of iNOS, which is an enzyme that produces nitric oxide, and COX-2, which is cyclooxygenase-2, were determined in mouse microglial cells (BV-2, ATCC, Manassas, VA, USA).
(§2) To determine the content of nitrite and the protein expression levels of iNOS and COX-2, BV-2 was seeded in a 12-well plate (Corning, MD, USA) at 1.5×10^5 cells/well, and cultured using a DMEM medium (Corning, MD, USA) containing 10% fetal bovine serum (Corning, MD, USA) and 100 U/mL of penicillin/streptomycin (Corning, MD, USA) at 37° C. in a 5% CO2 incubator for one day for stabilization. […] 1 μg/mL of LPS (Sigma, USA) was added to all experimental groups excluding the non-inflammation-induced group and allowed to react at 37° C. in a 5% CO2 incubator for 24 hours.
The cell culture solution was collected to measure the content of nitrite, and centrifuged at 3,000 rpm for 5 minutes to obtain a supernatant. The concentration of nitrite in the cell culture was measured using a microplate reader (NEO2MALPHAB Synergy Neo-2, BioTek, CA, US) according to the manual of the Griess Reagent System (#G2930, Promega, WI, USA).

iNOS and COX-2 [2] = assay: iNOS and COX-2 immunoblotting in LPS-stimulated BV-2 cells; format: cell-based, mouse; conditions: BV-2, 30, 10, or 3.33 μM, LPS 1 μg/mL 24 hours, FIG. 6C
Procedure: as §1, §2
The cells from which the cell culture medium was removed were disrupted by adding a RIPA buffer containing a protease inhibitor cocktail (Thermo Fisher Scientific), and centrifuged at 14,000 rpm for 15 minutes at 4° C. to obtain a cell extract. Equal amounts of the cell extract were loaded, and proteins were separated through SDS-PAGE and then transferred to a PVDF membrane. […]

[3] = Stability in human plasma (UPLC-MS quantification); format: in vitro ADME; conditions: FIG. 7B
Procedure: To plot a standard calibration curve, the stock sample was diluted by half with acetonitrile from 125 to 0.39 μg/mL to prepare standard solutions for a total of 10 samples at different concentrations, and the calibration curve was plotted as shown in FIG. 7A.
For the experiment of verifying stability in plasma, 10 μL of the test drug prepared at a concentration of 100 μg/mL was added to 90 μL of human plasma and mixed for 30 seconds, and then immediately after the addition, the plasma-mixed test drug was incubated for 15, 30, 60, or 120 minutes to prepare samples. Afterward, 400 μL of 100% ethyl acetate was added to each sample and extracted using a vortex mixture for 1 minute. […] Initially, the mobile phase B was increased from 5% to 95% until 9 minutes and analyzed, the mobile phase B was maintained 95% until 12 minutes, and then the mobile phase B was lowered to 5% and equilibrated, and used in the subsequent analysis. the flow rate of the mobile phase was 0.3 mL/min, the sample injection volume was 2 μL, and the mass spectrometer was operated in the ESI-positive mode. The spray voltage was set to 3.5 kV, and the flow rates of the nitrogen sheath gas, auxiliary gas, and sweep gas were analyzed as 50, 10, and 1 (arbitrary units), respectively. […]

- plasma level immediately after plasma addition ([3]; 0 minutes): 80 µg/mL
SMILES: Nc1cccc2c1C(=S)N(C1CCC(=O)NC1=O)C2=O (centres unmarked) [3-MP, 3-thiopomalidomide]
- expression of iNOS and COX-2 (protein) (iNOS and COX-2 [1]): inhibits the expression of iNOS and COX-2
- amount of residual nitrite released by LPS (BV-2 cells): effectively reduced the amount of the residual nitrite released by LPS, compared to pomalidomide
- expression of oxidative stress-associated proteins (iNOS and COX-2) (iNOS and COX-2 [2]): effectively reduced
- stability in human plasma over time ([3]; 0 to 120 minutes): maintained without significant changes in plasma from 0 to 120 minutes
